Reference: patent US20240024302A1, “SOLUBLE EPOXIDE HYDROLASE (sEH) INHIBITORS AND DUAL COX/sEH INHIBITORS FOR THE TREATMENT OF ARRHYTHMOGENIC CARDIOMYOPATHY” (BETH ISRAEL DEACONESS MEDICAL CENTER, INC., priority 2020, published 2024)
Converted amounts (≈) assume the structure as drawn. “Also recorded” adds a separate entry of the source.

Key:
[1] = Rat PK, single oral gavage; assay type: in vivo; details: single dose 0.1 mg/kg
[2] = Mouse PK, single oral gavage; details: mouse, in vivo, po, 0.3 mg/kg, single dose 0.3 mg/kg; for AUC: Mouse AUC, 20% PEG400 in oleic acid-rich triglyceride
[3] = target: T1, soluble epoxide hydrolase (sEH) (Homo sapiens, UniProt P34913); assay: Human in vitro Ki and dissociation t1/2 from the enzyme (fluorescence signals); assay type: binding; details: for Human In vitro t1/2 (time for half of the drug being dissociated from the enzyme): based on fluorescence signals
T1 sequence (P34913 1-555): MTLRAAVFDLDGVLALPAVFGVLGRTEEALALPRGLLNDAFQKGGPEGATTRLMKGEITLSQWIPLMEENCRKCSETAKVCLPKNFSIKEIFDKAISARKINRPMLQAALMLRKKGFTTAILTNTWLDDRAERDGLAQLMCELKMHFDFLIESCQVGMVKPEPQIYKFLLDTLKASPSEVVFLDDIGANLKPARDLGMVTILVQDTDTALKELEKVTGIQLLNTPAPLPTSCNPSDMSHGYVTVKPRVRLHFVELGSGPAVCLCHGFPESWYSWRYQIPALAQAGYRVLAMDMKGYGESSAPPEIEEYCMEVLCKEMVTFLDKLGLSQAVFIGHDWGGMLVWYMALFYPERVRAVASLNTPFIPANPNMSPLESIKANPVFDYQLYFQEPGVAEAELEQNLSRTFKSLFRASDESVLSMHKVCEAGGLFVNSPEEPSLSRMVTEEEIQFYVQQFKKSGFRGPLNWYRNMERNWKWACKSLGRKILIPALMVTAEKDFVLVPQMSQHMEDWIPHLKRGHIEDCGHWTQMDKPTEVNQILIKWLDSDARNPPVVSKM

Experimental LogP = assay type: physicochemical
Dsg2^mut/mut mice = assay: LV function in Dsg2mut/mut mice; assay type: in vivo, mouse; details: 3 mg/kg/day for 20 days, vs. untreated mice
[4] = test system: Neonatal rat ventricular myocytes (NRVM) expressing 2157del2 JUP; assay: Immunofluorescence of junction proteins in ACM in vitro model; assay type: cell-based; details: for Loss of cell surface signal for Cx43 / Redistribution of junctional plakoglobin to intracellular/nuclear sites: 500 nM 2.017 or 1 μM 1.045, 24 hours; for ACM disease features overall (plakoglobin, Cx43, pRelA/p65, TUNEL), sEH inhibitors: Jup2157del2 myocytes, 2.017 500 nM, 1.045 1 μM, concentration not given for 1,002 and 3.023
Description: Neonatal rat ventricular myocytes (NRVM) were isolated from the ventricles of 1-day-old Wistar rat pups and plated on collagen-coated plastic chambers. 24 hours following seeding, the cells were transfected with an adenoviral construct expressing a mutant form of plakoglobin known to cause arrhythmogenic cardiomyopathy in patients (2157del2 JUP). […] Non-transfected cultures and cultures transfected with the adenoviral construct only served as negative and positive controls, respectively.
(§1) Immunofluorescence: Cell cultures were fixed with 4% paraformaldehyde and prepared for immunofluorescence analysis as previously described (1). […] Cy3-conjugated goat anti-mouse and anti-rabbit antibodies (Jackson Immunolabs) were used as secondary antibodies and DAPI was used to visualize the nuclei. Immunostained preparations were visualized by confocal microscopy and changes in spatial distribution of signal were assessed qualitatively.

NFκB = assay: Nuclear pRelA/p65 immunofluorescence (NFκB activation) in ACM in vitro model; assay type: cell-based, rat; details: 500 nM 2.017 or 1 μM 1.045, 24 hours
Description: (§2) Neonatal rat ventricular myocytes (NRVM) were isolated from the ventricles of 1-day-old Wistar rat pups and plated on collagen-coated plastic chambers. 24 hours following seeding, the cells were transfected with an adenoviral construct expressing a mutant form of plakoglobin known to cause arrhythmogenic cardiomyopathy in patients (2157del2 JUP). 24 hours following transfection, the cells were treated with 500 nM 2.017 or 1 μM 1.045 for an additional 24 hours. Non-transfected cultures and cultures transfected with the adenoviral construct only served as negative and positive controls, respectively.
as §1

[5] = test system: Neonatal rat ventricular myocytes (NRVM) expressing 2157del2 JUP; assay: TUNEL apoptosis assay in ACM in vitro model; assay type: cell-based; details: 500 nM 2.017 or 1 μM 1.045, 24 hours
Description: as §2
Apoptosis assay: Terminal deoxynucleotidyl transferase dUTP nick end labelling (TUNEL) was performed on NRVM cultures following the manufacturer's instructions (Millipore, S7110). DNA strand breaks generated in apoptotic cells were labelled with fluorescein (green) and nuclei were visualized with DAPI. The number of TUNEL-positive nuclei was counted in 5 randomly selected high-power fields in each culture well and expressed as a percent of total nuclei visualized with DAPI.

Solubility in buffer = assay type: physicochemical; details: aqueous buffer; Sodium Phosphate Buffer at pH 7.4

Row | AUC ([2]; oral gavage) [µM·h] | Human In vitro t1/2 (time for half of the drug being dissociated from the enzyme) [3] [h] | Exp. LogP (Experimental LogP) | SMILES | Loss of cell surface signal for Cx43 [4] | Redistribution of junctional plakoglobin to intracellular/nuclear sites [4] | ACM disease features overall (plakoglobin, Cx43, pRelA/p65, TUNEL), sEH inhibitors [4] | Activation of NFκB (nuclear signal for pRelA/p65) (NFκB) | Myocyte apoptosis (TUNEL+ nuclei) [5] | other results
1 | ≥ 0.0999 | 0.167 | – | CC[C@H](C)C(=O)N1CCC(NC(=O)Nc2ccc(OC(F)(F)F)c(Cl)c2)CC1 | – | – | – | – | – | Cmax ([1]; rat, in vivo): 42 ± 6 nM; Tmax ([1]; rat, in vivo): 2.1 ± 0.3 h; AUC ([1]; rat, in vivo, PEG 300): 0.241 ± 0.012 µM·h; half-life ([1]; rat, in vivo, read-out: Rat T1/2 (converted)): 2.9 ± 0.5 h
2 | – | – | 3.41 | O=C(Nc1ccc(C(F)(F)F)c(F)c1)NC1CCN(C(=O)[C@@H]2CCOC2)CC1 (stereo in doubt) | – | – | – | – | – | –
3 | – | – | – | CCC(=O)N1CCC(NC(=O)Nc2ccc(OC(F)(F)F)cc2)CC1 [Compound 1.045] | reduced loss of cell surface signal for Cx43 | prevented redistribution of junctional plakoglobin; also recorded: prevented translocation of junctional plakoglobin | reversed | prevented activation of NFκB; also recorded: blocked activation of NFκB | greatly diminished myocyte apoptosis | LV function (Dsg2^mut/mut mice): marked recovery of LV function; also recorded: recovered LV function
4 | 0.0998 ± 0.0001 | – | 5.98 | CC[C@H](C)C(=O)N1CCC(NC(=O)Nc2ccc(OC(F)(F)F)c(F)c2)CC1 [drawing 88] | – | – | – | – | – | Cmax [1]: 42 ± 6 nM; Rat T1/2 [1]: 1.6 ± 0.2 h; Rat Tmax [1]: 1.8 ± 0.1 h; Rat AUC ([1]; PEG 300): 0.208 ± 0.025 µM·h; Cmax ([2]; Mouse Cmax, oral gavage): 737 nM; half-life ([2]; Mouse T1/2, oral gavage): 117 h; Tmax ([2]; Mouse Tmax, oral gavage): 1.6 h
5 | – | – | – | NS(=O)(=O)c1ccc(-n2nc(CCCNC(=O)Nc3ccc(C(F)(F)F)cc3)cc2-c2ccccc2)cc1 [Compound 2.017] | reduced loss of cell surface signal for Cx43 | prevented redistribution of junctional plakoglobin; also recorded: prevented translocation of junctional plakoglobin | reversed | prevented activation of NFκB; also recorded: blocked activation of NFκB | greatly diminished myocyte apoptosis | –
6 | – | 0.0783 | – | CC[C@H](C)C(=O)N1CCC(CC(=O)Nc2ccc(OC(F)(F)F)cc2F)CC1 | – | – | – | – | – | solubility (Solubility in buffer): 2.6 µg/mL (≈ 6.43 µM); logP (Experimental LogP; read-out: Exp. LogP): 6; Ki [3]: 4.72 nM
